Test results reported in ChEMBL document CHEMBL1201862, “PubChem BioAssay data set” (2004).
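Results reflect a 48-hour exposure of cells in 96-well plates to compound at five concentrations. At the GI50, growth is halved.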 Calls of active or inactive are those of the source. No stated cut-off is given here; in the data, active = GI50 up to about 1.1 µM and inactive = higher.

What was measured:
Test in all cases: NCI anticancer screen, dose series, 48 h
HOP-62 = test system: HOP-62
SK-MEL-5 = test system: SK-MEL-5
HT-29 = test system: HT-29
SR = test system: SR
786-0 = test system: 786-0
NCI-H226 = test system: NCI-H226
OVCAR-8 = test system: OVCAR-8
SF-539 = test system: SF-539
DMS-114 = test system: DMS-114
RPMI-8226 = test system: RPMI-8226
MCF7 = test system: MCF7
NCI/ADR-RES = test system: NCI/ADR-RES
MDA-MB-435 = test system: MDA-MB-435
BT-549 = test system: BT-549
DU-145 = test system: DU-145
Hs-578T = test system: Hs-578T
T47D = test system: T47D
PC-3 = test system: PC-3
MDA-N = test system: MDA-N
MDA-MB-231 = test system: MDA-MB-231

Measured: GI50

O=C(O)C(SC(=S)c1ccc(C(=S)SC(C(=O)O)c2ccccc2)cc1)c1ccccc1 (stereo not given)
inactive: HOP-62 > 100 µM | SK-MEL-5 > 100 µM | HT-29 67.1 µM | SR > 100 µM | 786-0 40.9 µM | NCI-H226 55.5 µM | OVCAR-8 > 100 µM | SF-539 > 100 µM | DMS-114 35 µM | RPMI-8226 42.8 µM

CC1SC2=NC3=C(c4ccccc4C3=O)C(c3ccccc3Cl)N2C1=O (stereo not given)
inactive: HOP-62 > 100 µM | SK-MEL-5 > 100 µM | HT-29 > 100 µM | 786-0 > 100 µM | NCI-H226 > 100 µM | OVCAR-8 > 100 µM | SF-539 > 100 µM | DMS-114 > 100 µM | RPMI-8226 58.5 µM

COc1cc(C(=O)CC2OC(=O)C(Cl)=C2Cl)ccc1Cl (stereo not given)
inactive: HOP-62 > 100 µM | SK-MEL-5 > 100 µM | HT-29 > 100 µM | SR > 100 µM | NCI-H226 > 100 µM | OVCAR-8 > 100 µM | SF-539 > 100 µM | DMS-114 > 100 µM | RPMI-8226 > 100 µM

CC(C)=CCC/C(C)=C/CC/C(C)=C/C(O)c1ccccc1 (stereo not given)
inactive: HOP-62 19.1 µM | SK-MEL-5 16.6 µM | HT-29 18.4 µM | SR 20.7 µM | NCI-H226 30.1 µM | OVCAR-8 20.6 µM | DMS-114 18.3 µM | RPMI-8226 18.7 µM

COC1(O)c2cccc(Cl)c2C(=O)N1C1(C(N)=O)CCCCC1 (stereo not given)
inactive: HOP-62 > 100 µM | SK-MEL-5 > 100 µM | MCF7 > 100 µM | HT-29 > 43.7 µM | NCI-H226 > 100 µM | OVCAR-8 > 100 µM | SF-539 > 100 µM | NCI/ADR-RES > 100 µM | DMS-114 > 100 µM | RPMI-8226 > 100 µM

CSc1nc2c(nc(N)n2C2OCC(O)C(O)C2O)c(=O)[nH]1 (stereo not given)
inactive: HOP-62 > 100 µM | SK-MEL-5 > 100 µM | HT-29 > 100 µM | SR > 100 µM | 786-0 > 100 µM | NCI-H226 > 100 µM | OVCAR-8 > 100 µM | SF-539 > 100 µM | DMS-114 > 100 µM

c1ccc(COc2cccc3ccc[n+](Cc4ccccc4)c23)cc1
inactive: HOP-62 12 µM | HT-29 5.01 µM | 786-0 13.4 µM | NCI-H226 3.31 µM | SF-539 7.82 µM | DMS-114 2.99 µM | RPMI-8226 2.77 µM

O=C(O)C1CC2C=CCC(C2)C1 (stereo not given)
inactive: HOP-62 > 100 µM | SK-MEL-5 > 100 µM | HT-29 > 100 µM | SR > 100 µM | 786-0 > 100 µM | NCI-H226 > 100 µM | OVCAR-8 > 100 µM | DMS-114 > 100 µM | RPMI-8226 > 100 µM

CC(C)OP(=O)(OC(C)C)/C(F)=N/Nc1ccc([N+](=O)[O-])cc1
inactive: HOP-62 > 100 µM | SK-MEL-5 > 100 µM | HT-29 > 100 µM | SR > 100 µM | OVCAR-8 > 100 µM | SF-539 > 100 µM | DMS-114 > 100 µM | RPMI-8226 > 100 µM

O=C1CC(=O)NC(NN2C(=O)/C(=C/c3ccc(Cl)c(Cl)c3)N=C2c2ccccc2)=N1
inactive: HOP-62 23.9 µM | SK-MEL-5 16.3 µM | MCF7 16.7 µM | HT-29 22.9 µM | MDA-MB-435 27 µM | SR 11.7 µM | BT-549 20.7 µM | DU-145 48.2 µM | 786-0 26.9 µM | NCI-H226 32.1 µM | OVCAR-8 34 µM | Hs-578T 18.4 µM | T47D 47.1 µM | PC-3 23.1 µM | SF-539 20.8 µM | MDA-N 23.9 µM | NCI/ADR-RES 19.8 µM | MDA-MB-231 17.1 µM | RPMI-8226 13.6 µM

C1=CCN(c2ccccc2)CC1
inactive: SK-MEL-5 62.7 µM | HT-29 23.6 µM | SR 2.93 µM | OVCAR-8 27 µM | SF-539 43.5 µM | DMS-114 32.4 µM | RPMI-8226 2.48 µM
